Assay results taken from patent publication US6743575B2, “Compositions and methods for the preservation of living tissues” (Biostore New Zealand Ltd., priority 1996, dated 2004).

Tested on: mouse embryos
Experiment: Storage of mouse embryos at 4° C., survival assessed by hatching in subsequent culture
Assay type: cell-based
Settings: for ranking of Class I and Class II solutes for hatching of stored embryos: storage 1-3 days at 4° C., Class I:Class II 1.6:1, 1.75 mM CaSO4
Description: The efficacy of the solutions of the present invention in the preservation of mouse embryos was tested as described below. As embryos consist of rapidly dividing cells, they are difficult to arrest, and therefore provide a sensitive test of storage solutions. Embryos also have the advantage that survival in storage can be assessed after 1-5 days by their ability to hatch in subsequent culture.
Viable mouse embryos were stored for periods of 1, 2 or 3 days at 4° C. in either PBS or an aqueous solution of either raffinose, trehalose, sucrose or lactose (Class I solutes), together with a solute selected from the group consisting of trimethyl amine oxide (TMAO), betaine, taurine, sarcosine, glucose, mannose, fructose, ribose, galactose, sorbitol, mannitol, inositol and taurine (Class II solutes), at a ratio of Class I solute to Class II solute of 1.6:1. Each Class I/Class II solution also contained calcium sulfate at a concentration of 1.75 mM. The solutions also contained 0.1-1% bovine serum albumin (BSA) and 25 mg/L of kanamycin sulfate. All reagents were obtained from Sigma Chemical Company (St. Louis, Mo.). Survival of the embryos was assessed by subsequent culture in Dulbecco's Modified Eagles Medium (DMEM, Life Technologies, Grand Island, N.Y.) and was expressed both as the number of live embryos present after storage and the number of embryos which hatched after 48 hours in culture at 37° C.
Mouse embryos were incubated with either sodium butyrate or a Class II solute at either, room temperature, 30° C. or 4° C. prior to storage in Solution 70/30 for up to five days at 4° C. […] Sodium butyrate replaced sodium chloride at the same concentration in PBS. FIGS. 8A, B and C show the percentage of mouse embryos hatching after 1, 2 and 3 days, respectively, in storage following pretreatment with sodium butyrate at concentrations of 5, 10 or 15 mM for either 10, 20 or 30 minutes. FIGS. 8D, E and F show the percentage of mouse embryos alive after 1, 2 and 3 days, respectively, in storage following pretreatment with sodium butyrate at concentrations of 5, 10 or 15 mM for either 10, 20 or 30 minutes. Pretreatment with sodium butyrate allowed up to 80% of embryos to hatch following three days of storage in Solution 70/30. After 5 days of storage in Solution 70/30 following pretreatment with higher concentrations of sodium butyrate, up to 70% of embryos hatched compared to 2% with no pretreatment (see FIG. 9). Embryos stored in PBS without pretreatment lasted no longer than 3 days. […] FIGS. 10A, B, C and D show the survival of mouse embryos after up to four days of storage in Solution 70/30 at 4° C. following pretreatment with 25 mM sodium butyrate for 5, 10 or 15 minutes at room temperature.

Row | SMILES | ranking of Class I and Class II solutes for hatching of stored embryos | embryos hatched (5 days of storage in Solution 70/30 after pretreatment with higher concentrations of sodium butyrate) | embryos hatching (three days of storage in Solution 70/30 at 4° C. after pretreatment with sodium butyrate)
1 | OC[C@H]1O[C@H](OC[C@H]2O[C@H](O[C@]3(CO)O[C@H](CO)[C@@H](O)[C@@H]3O)[C@H](O)[C@@H](O)[C@@H]2O)[C@H](O)[C@@H](O)[C@H]1O [Raffinose, raffinose] | best Class I solute |  | 
2 | C[N+](C)(C)[O-] [TMAO, trimethyl amine oxide] | best Class II solute |  | 
3 | C[N+](C)(C)CC(=O)O [betaine] | second best |  | 
4 | CCCC(=O)[O-].[Na+] [sodium butyrate] |  | up to 70% | up to 80%
5 | OC[C@H]1O[C@H](O[C@H]2O[C@H](CO)[C@@H](O)[C@H](O)[C@H]2O)[C@H](O)[C@@H](O)[C@@H]1O [trehalose] | second best |  | 
